Assays:
Test in all cases: relative viability (nuclei count vs DMSO), 5 days (fraction); higher = more cells survive
[1] = compound: C[C@]12O[C@H](C[C@]1(O)CO)n1c3ccccc3c3c4c(c5c6ccccc6n2c5c31)CNC4=O [Lestaurtinib] + CC1(C)CCC(c2ccc(Cl)cc2)=C(CN2CCN(c3ccc(C(=O)NS(=O)(=O)c4ccc(N[C@H](CCN5CCOCC5)CSc5ccccc5)c(S(=O)(=O)C(F)(F)F)c4)cc3)CC2)C1 [Navitoclax] (partner 0.5 µM)
In short: (§1)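 Relative viability equals treated-well nuclei counts divided by vehicle-well nuclei counts. Counts came from 4× images of lung cancer cell lines grown in 1536-well plates for 5 days after pin-tool dosing on the day after seeding. Dosing used one drug alone or a fixed anchor-drug dose plus five library-drug doses (not always all listed) in √10 steps, and values are medians of duplicate plates.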

[2] = compound: C[C@]12O[C@H](C[C@]1(O)CO)n1c3ccccc3c3c4c(c5c6ccccc6n2c5c31)CNC4=O [Lestaurtinib] + C[C@@H](Oc1cc(-c2cnn(C3CCNCC3)c2)cnc1N)c1c(Cl)ccc(F)c1Cl [Crizotinib] (partner 1 µM)
In short: as §1

[3] = compound: C1/C(=C\C2=CC=CS2)/C(=O)/C(=C/C3=CC=CS3)/C1 + CC(C)C[C@H](NC(=O)[C@H](Cc1ccccc1)NC(=O)c1cnccn1)B(O)O [Bortezomib] (partner 0.002 µM)
In short: as §1

[4] = compound: C1/C(=C\C2=CC=CS2)/C(=O)/C(=C/C3=CC=CS3)/C1 + O=C(c1cc(Cc2n[nH]c(=O)c3ccccc23)ccc1F)N1CCN(C(=O)C2CC2)CC1 [Olaparib] (partner 8 µM)
In short: as §1

## UMC-11
[1]; first compound 0.005 µM
  relative viability: 0.294
[1]; first compound 0.01581 µM
  relative viability: 0.275
[1]; first compound 0.05 µM
  relative viability: 0.251
[1]; first compound 0.1581 µM
  relative viability: 0.144
[1]; first compound 0.5 µM
  relative viability: 0.143
[2]; first compound 0.005 µM
  relative viability: 0.5
[2]; first compound 0.01581 µM
  relative viability: 0.6
[2]; first compound 0.05 µM
  relative viability: 0.416
[2]; first compound 0.1581 µM
  relative viability: 0.248
[2]; first compound 0.5 µM
  relative viability: 0.107
[3]; first compound 0.2 µM
  relative viability: 0.717
[3]; first compound 0.6325 µM
  relative viability: 0.579
[3]; first compound 2 µM
  relative viability: 0.639
[3]; first compound 20 µM
  relative viability: 0.597
[4]; first compound 0.2 µM
  relative viability: 0.462
[4]; first compound 0.6325 µM
  relative viability: 0.347
[4]; first compound 2 µM
  relative viability: 0.405
[4]; first compound 6.325 µM
  relative viability: 0.475
[4]; first compound 20 µM
  relative viability: 0.391
